In brackets after ≈: the same amount, converted by molar mass. Where two headings read alike, the source gives them in different places.
What was measured:
[1] = aqueous equilibrium solubility at 37° C.; type: physicochemical; conditions: aqueous media, thermodynamic from solid
Source text: The solubility of 2-((3-(4-cyanonaphthalen-1-yl)pyridine-4-yl)thio)-2-methylpropanoic acid in aqueous media is highly dependent upon pH.

urine urate excretion = test: Phase 1 single dose study, immediate release formulations: urine urate excretion; type: in vivo, human; conditions: 5 mg/Fasted
Source text: A phase 1, randomized, double-blind, placebo-controlled study in healthy adult male volunteers evaluated single rising doses and the preliminary food effect for 2-((3-(4-cyanonaphthalen-1-yl)pyridine-4-yl)thio)-2-methylpropanoic acid at 6 dose groups with 8 subjects per group. […] Subjects in each dose group were randomized to receive a single dose of either 2-((3-(4-cyanonaphthalen-1-yl)pyridine-4-yl)thio)-2-methylpropanoic acid (6 subjects) or placebo (2 subjects). 2-((3-(4-cyanonaphthalen-1-yl)pyridine-4-yl)thio)-2-methylpropanoic acid was supplied as 1 mg oral solution, 2 mg oral solution, 5 mg tablets, or 20 mg tablets (depending on dose level).
The mean plasma concentration-time profiles for the IR formulations under fed and fasted conditions are depicted in FIGS. 3a and 3b. Absorption of 2-((3-(4-cyanonaphthalen-1-yl)pyridine-4-yl)thio)-2-methylpropanoic acid following a single oral dose under fasted conditions was rapid. […] When 2-((3-(4-cyanonaphthalen-1-yl)pyridine-4-yl)thio)-2-methylpropanoic acid was administered with food, slightly slower absorption and lower exposure were observed. […] Important pharmacodynamic parameters related to the serum Uric Acid lowering effects are shown in the following two tables: […]

[2] = Phase 1 study of MR formulations MR1-5: plasma pharmacokinetics; type: in vivo; conditions: male, human, oral, 5 mg, MR1-MR5 formulations, fasted and fed (Table 9), read-out: average terminal half-life
Protocol: A Phase 1, randomized study to evaluated the PK, PD, and safety and tolerability of 2-((3-(4-cyanonaphthalen-1-yl)pyridine-4-yl)thio)-2-methylpropanoic acid MR formulations in n=12 healthy adult male subjects in fasted and fed states. This study evaluated a total of 5 MR formulations at a 5 mg dose. The MR formulations tested are those described in Examples 2-6. Plasma samples for PK analysis were collected at the following time points: Pre-dose (within 30 minutes before dosing) and at 0.25, 0.5, 0.75, 1, 1.5, 2, 2.5, 3, 4, 5, 6, 8, 10, 12, 24, 30, 36, 48, 54, 60 and 72 hours post-dose. A summary of the mean plasma pharmacokinetic parameters following administration of the MR compositions of 2-((3-(4-cyanonaphthalen-1-yl)pyridine-4-yl)thio)-2-methylpropanoic acid are provided in Table 9.

[3] = mg of urate per urine collection period

solubility at 24 h ([1]; pH 1, simulated gastric fluid, 0.1N HCl, pH initial 1.1, pH (24 h) 1.0, read-out: Solubility after 24 hours): 1480 µg/mL (≈ 4250 µM)
solubility at 48 h ([1]; pH 1.1, simulated gastric fluid, 0.1N HCl, pH initial 1.1, pH (48 h) 1.1, read-out: Solubility after 48 hours): 1240 µg/mL (≈ 3550 µM)
solubility at 24 h ([1]; pH 1.6, simulated gastric fluid, SGF pH 1.6, pH initial 1.6, pH (24 h) 1.4, read-out: Solubility after 24 hours): 415 µg/mL (≈ 1190 µM)
solubility at 48 h ([1]; pH 1.6, simulated gastric fluid, SGF pH 1.6, pH initial 1.6, pH (48 h) 1.4, read-out: Solubility after 48 hours): 398 µg/mL (≈ 1140 µM)
solubility at 24 h ([1]; pH 3, aqueous buffer, Citrate pH 3.0, pH initial 3.0, pH (24 h) 2.8, read-out: Solubility after 24 hours): 66 µg/mL (≈ 189 µM)
solubility at 48 h ([1]; pH 3, aqueous buffer, Citrate pH 3.0, pH initial 3.0, pH (48 h) 2.8, read-out: Solubility after 48 hours): 65 µg/mL (≈ 187 µM)
solubility at 24 h ([1]; pH 4, aqueous buffer, Succinate pH 4.0, pH initial 4.0, pH (24 h) 3.9, read-out: Solubility after 24 hours): 56 µg/mL (≈ 161 µM)
solubility at 48 h ([1]; pH 4, aqueous buffer, Succinate pH 4.0, pH initial 4.0, pH (48 h) 3.9, read-out: Solubility after 48 hours): 55 µg/mL (≈ 158 µM)
solubility at 24 h ([1]; pH 4.5, aqueous buffer, Acetate pH 4.5, pH initial 4.6, pH (24 h) 4.5, read-out: Solubility after 24 hours): 70 µg/mL (≈ 201 µM)
solubility at 48 h ([1]; pH 4.5, aqueous buffer, Acetate pH 4.5, pH initial 4.6, pH (48 h) 4.5, read-out: Solubility after 48 hours): 65 µg/mL (≈ 187 µM)
solubility at 24 h ([1]; pH 5, aqueous buffer, Citrate pH 5.0, pH initial 5.0, pH (24 h) 5.0, read-out: Solubility after 24 hours): 97 µg/mL (≈ 278 µM)
solubility at 48 h ([1]; pH 5, aqueous buffer, Citrate pH 5.0, pH initial 5.0, pH (48 h) 4.9, read-out: Solubility after 48 hours): 95 µg/mL (≈ 273 µM)
solubility at 48 h ([1]; pH 5.3, water, Water, pH initial 6.3, pH (48 h) 5.3, read-out: Solubility after 48 hours): 132 µg/mL (≈ 379 µM)
solubility at 24 h ([1]; pH 5.4, water, Water, pH initial 6.3, pH (24 h) 5.4, read-out: Solubility after 24 hours): 148 µg/mL (≈ 425 µM)
solubility at 24 h ([1]; pH 6, aqueous buffer, Histidine pH 6.0, pH initial 6.1, pH (24 h) 5.8, read-out: Solubility after 24 hours): 532 µg/mL (≈ 1530 µM)
solubility at 48 h ([1]; pH 6, aqueous buffer, Histidine pH 6.0, pH initial 6.1, pH (48 h) 5.8, read-out: Solubility after 48 hours): 485 µg/mL (≈ 1390 µM)
solubility at 24 h ([1]; pH 6.8, aqueous buffer, Potassium phosphate pH 6.8, pH initial 6.9, pH (24 h) 6.6, read-out: Solubility after 24 hours): 2370 µg/mL (≈ 6800 µM)
solubility at 48 h ([1]; pH 6.8, aqueous buffer, Potassium phosphate pH 6.8, pH initial 6.9, pH (48 h) 6.5, read-out: Solubility after 48 hours): 2710 µg/mL (≈ 7770 µM)
solubility at 24 h ([1]; pH 6.9, aqueous buffer, 0.03N NaOH, pH initial 12.3, pH (24 h) 6.9, read-out: Solubility after 24 hours): 10600 µg/mL (≈ 30300 µM)
solubility at 48 h ([1]; pH 6.9, aqueous buffer, 0.03N NaOH, pH initial 12.3, pH (48 h) 6.9, read-out: Solubility after 48 hours): 10300 µg/mL (≈ 29400 µM)
solubility at 48 h ([1]; pH 7, aqueous buffer, 0.1N NaOH, pH initial 12.8, pH (48 h) 7.0, read-out: Solubility after 48 hours): 33500 µg/mL (≈ 96100 µM)
solubility at 24 h ([1]; pH 7, aqueous buffer, Sodium phosphate pH 7.0, pH initial 7.0, pH (24 h) 6.7, read-out: Solubility after 24 hours): 3520 µg/mL (≈ 10100 µM)
solubility at 48 h ([1]; pH 7, aqueous buffer, Sodium phosphate pH 7.0, pH initial 7.0, pH (48 h) 6.6, read-out: Solubility after 48 hours): 3620 µg/mL (≈ 10400 µM)
solubility at 24 h ([1]; pH 7.1, aqueous buffer, 0.1N NaOH, pH initial 12.8, pH (24 h) 7.1, read-out: Solubility after 24 hours): 31900 µg/mL (≈ 91500 µM)
solubility at 48 h ([1]; pH 7.4, aqueous buffer, 0.3N NaOH, pH initial 13.2, pH (48 h) 7.4, read-out: Solubility after 48 hours): 93600 µg/mL (≈ 269000 µM)
solubility at 24 h ([1]; pH 11.7, aqueous buffer, 0.3N NaOH, pH initial 13.2, pH (24 h) 11.7, read-out: Solubility after 24 hours): 87800 µg/mL (≈ 252000 µM)
half-life [2]: 10 to 28 h
Compound: CC(C)(Sc1ccncc1-c1ccc(C#N)c2ccccc12)C(=O)O [2-((3-(4-cyanonaphthalen-1-yl)pyridine-4-yl)thio)-2-methylpropanoic acid]
Urine Urate Excretion 0-6 hrs/0-24 hrs (urine urate excretion): 0.468
Urine Urate Excretion UUE 0-6 hrs (urine urate excretion; [3]): 509 mg
Urine Urate Excretion UUE 6-12 hrs (urine urate excretion; [3]): 231 mg
Urine Urate Excretion UUE 12-24 hrs (urine urate excretion; [3]): 347 mg
